In patent US7728020B2, “Amino acid derivatives” (Novartis AG, priority 2004, dated 2010):

Tests used:
[1] = molecular target: T1, human S1P receptor EDG-6 (S1P4) (Homo sapiens, UniProt O95977); assay: GTP[γ-35S] binding SPA, S1P receptor profiling (S1P4); type: biochemical; design: key to S1P4 mode of action: Agon = agonist; conditions: GTP[γ-35S] SPA
T1 construct: expressed in transfected cells
T1 sequence (O95977 1-384): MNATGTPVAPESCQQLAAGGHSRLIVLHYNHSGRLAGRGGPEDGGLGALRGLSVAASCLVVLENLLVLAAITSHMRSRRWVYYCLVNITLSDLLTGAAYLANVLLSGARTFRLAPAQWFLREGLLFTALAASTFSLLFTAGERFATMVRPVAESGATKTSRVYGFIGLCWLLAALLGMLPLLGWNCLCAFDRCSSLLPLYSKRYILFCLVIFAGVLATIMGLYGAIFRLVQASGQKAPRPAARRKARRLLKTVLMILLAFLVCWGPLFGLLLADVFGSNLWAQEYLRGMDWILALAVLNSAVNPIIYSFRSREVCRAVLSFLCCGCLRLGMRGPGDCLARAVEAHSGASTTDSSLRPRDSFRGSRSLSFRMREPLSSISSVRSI
Experimental: (§1) Sphingosine-1-phosphate (SIP) Receptor Profiling
(§2) Agonist activities of compounds are tested on the human S1P receptors EDG-1 (S1P1), EDG-3 (S1P3), EDG-5 (S1P2), EDG-6 (S1P4) and EDG-8 (S1P5). […] The assay technology used is SPA (scintillation proximity based assay). Briefly, DMSO dissolved compounds are serially diluted and added to SPA-based (Amersham-Pharmacia) immobilised S1P receptor expressing membrane protein (10-20 μg/well) in the presence of 50 mM Hepes, 100 mM NaCl, 10 mM MgCl2, 10 μM GDP, 0.1% fat free BSA and 0.2 nM GTP [γ^35S] (1200 Ci/mmol). After incubation in 96 well microtiterplates at RT for 120 min, unbound GTP [γ^35S] is separated by a centrifugation step. Luminescence of SPA beads triggered by membrane bound GTP [γ^35S] is quantified with a TOPcount plate reader (Packard). EC50s are calculated using standard curve fitting software. In this assay, the compounds of formula I have a binding affinity to S1P1 receptor <50 nM.

[2] = molecular target: T2, human S1P receptor EDG-3 (S1P3) (Homo sapiens, UniProt Q99500); assay: GTP[γ-35S] binding SPA, S1P receptor profiling (S1P3); type: biochemical; design: key to S1P3 mode of action: Agon = agonist; conditions: GTP[γ-35S] SPA
T2 construct: expressed in transfected cells
T2 sequence (Q99500 whole entry): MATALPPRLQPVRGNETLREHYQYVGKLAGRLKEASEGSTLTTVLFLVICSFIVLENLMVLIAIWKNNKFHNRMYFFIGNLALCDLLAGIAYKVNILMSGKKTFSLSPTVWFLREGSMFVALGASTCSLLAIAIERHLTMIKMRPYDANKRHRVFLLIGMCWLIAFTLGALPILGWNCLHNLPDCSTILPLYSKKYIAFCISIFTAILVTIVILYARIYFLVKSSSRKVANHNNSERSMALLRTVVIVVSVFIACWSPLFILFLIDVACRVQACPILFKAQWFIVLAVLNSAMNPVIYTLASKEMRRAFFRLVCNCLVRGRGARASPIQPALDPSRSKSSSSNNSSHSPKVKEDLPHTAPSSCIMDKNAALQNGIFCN
Experimental: as §1, §2

[3] = system: peripheral blood lymphocytes; assay: Blood lymphocyte depletion; type: in vivo; conditions: rats, 3.2 mg/kg p.o. after 6 h
Experimental: B. In vivo: Blood Lymphocyte Depletion
A compound of formula I or the vehicle is administered orally by gavage to rats. Tail blood for hematological monitoring is obtained on day −1 to give the baseline individual values, and at 2, 6, 24, 48 and 72 hours after application. In this assay, the compounds of formula I deplete peripheral blood lymphocytes when administered at a dose of 0.03 to 3 mg/kg. For example, following results are obtained: depletion of peripheral blood lymphocytes by more than 50%.

[4] = molecular target: T3, human S1P receptor EDG-1 (S1P1) (Homo sapiens, UniProt P21453); assay: GTP[γ-35S] binding SPA, S1P receptor profiling (S1P1); type: biochemical; design: key to S1P1 mode of action: Agon = agonist; conditions: GTP[γ-35S] SPA
T3 construct: expressed in transfected cells
T3 sequence (P21453 whole entry): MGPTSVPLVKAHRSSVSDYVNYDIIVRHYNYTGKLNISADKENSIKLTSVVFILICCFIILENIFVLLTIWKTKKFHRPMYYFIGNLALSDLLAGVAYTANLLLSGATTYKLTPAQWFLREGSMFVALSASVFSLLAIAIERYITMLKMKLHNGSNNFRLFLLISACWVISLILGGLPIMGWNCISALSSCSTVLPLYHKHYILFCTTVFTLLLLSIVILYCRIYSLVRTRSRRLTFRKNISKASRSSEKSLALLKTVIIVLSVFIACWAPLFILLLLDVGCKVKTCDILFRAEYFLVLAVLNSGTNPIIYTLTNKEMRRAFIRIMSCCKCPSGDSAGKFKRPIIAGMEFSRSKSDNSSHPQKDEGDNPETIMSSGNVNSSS
Experimental: as §1, §2

[5] = molecular target: T4, human S1P receptor EDG-8 (S1P5) (Homo sapiens, UniProt Q9H228); assay: GTP[γ-35S] binding SPA, S1P receptor profiling (S1P5); type: biochemical; design: key to S1P5 mode of action: Agon = agonist; conditions: GTP[γ-35S] SPA
T4 construct: expressed in transfected cells
T4 sequence (Q9H228 whole entry): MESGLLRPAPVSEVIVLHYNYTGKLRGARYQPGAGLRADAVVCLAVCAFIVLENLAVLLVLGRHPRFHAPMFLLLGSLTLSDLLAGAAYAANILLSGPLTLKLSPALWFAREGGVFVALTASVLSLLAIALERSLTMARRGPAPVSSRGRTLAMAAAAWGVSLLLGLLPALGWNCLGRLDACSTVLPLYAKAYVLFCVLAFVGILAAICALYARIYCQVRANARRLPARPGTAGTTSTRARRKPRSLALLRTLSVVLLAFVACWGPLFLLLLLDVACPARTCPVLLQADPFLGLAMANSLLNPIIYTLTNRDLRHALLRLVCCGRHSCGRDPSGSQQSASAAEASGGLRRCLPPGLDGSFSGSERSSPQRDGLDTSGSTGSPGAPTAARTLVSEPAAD
Experimental: as §1, §2

[6] = membranes of transfected CHO or RH7777 cells

- S1P4 mode of action [1]: Agon
- EC50 [1, 6]: 117 nM
- S1P3 mode of action [2]: Agon
- EC50 [2, 6]: 209 nM
- S1P1 mode of action [4]: Agon
- EC50 [4, 6]: 11 nM
- S1P5 mode of action [5]: Agon
- EC50 [5, 6]: 203 nM
Structure (SMILES): CCCCCCCOc1ccc(CC[C@@](C)(N)CC(=O)O)cc1 [Example 1, (R)-3-Amino-5-(4-heptyloxy-phenyl)-3-methyl-pentanoic acid]
- depletion of peripheral blood lymphocytes [3]: more than 50%
